Read-outs that look alike come from different tables or passages of the source.
System: Lox-IMVI melanoma cell line
Assay: Lox-IMVI anti-proliferative assay (growth inhibition, Cell Titer-Glo)
Type: cell-based, human
Conditions: Homo sapiens
Outline: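 Cells grown in RPMI + 10% FBS were exposed to compound at 0.5 nM to 10 μM (10-point, 3-fold dilution, duplicate, 0.2% DMSO final) for 72 h at 37 °C, 5% CO2. Viability was read by ATP luminescence at t0 and 72 h. IC50 came from a four-parameter logistic fit normalized to DMSO control.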

[1] = IC50 activity level in the cell-based Lox-IMVI anti-proliferative assay, read-out: Activity
[2] = Lox-IMVI anti-proliferative assay, IC50 activity level, read-out: Activity
[3] = Lox-IMVI melanoma cell line, anti-proliferative assay, read-out: Activity (IC50 activity level)

SMILES	IC50 [1]	IC50 [3]	also measured
NC(=O)[C@H]1CC[C@@H](n2c(Nc3c(F)cccc3Cl)nc3cnc(N[C@@H]4CC[C@@H](O)C4)nc32)CC1 [Example 208, (1S,4s)-4-(8-(2-chloro-6-fluorophenylamino)-2-((1R,3R)-3-hydroxycyclopentylamino)-9H-purin-9-yl)cyclohexanecarboxamide]	> 1 µM	–	–
C[C@]1(C(N)=O)CC[C@@H](n2c(Nc3c(Cl)cc(F)cc3Cl)nc3cnc(NC4CCCC4)nc32)CC1 [Example 560, (1s,4s)-4-(2-(cyclopentylamino)-8-(2,6-dichloro-4-fluorophenylamino)-9H-purin-9-yl)-1-methylcyclohexanecarboxamide]	–	–	IC50 [2]: 0.25 to 0.5 µM
N#Cc1cc(F)c(Nc2nc3cnc(N[C@@H]4CCCN(Cc5ccccc5)C4)nc3n2[C@H]2CC[C@@H](C(N)=O)CC2)c(F)c1 [Example 755, (1S,4s)-4-(2-((R)-1-benzylpiperidin-3-ylamino)-8-(4-cyano-2,6-difluorophenylamino)-9H-purin-9-yl)cyclohexanecarboxamide]	–	> 1 µM	–
NC(=O)[C@H]1CC[C@@H](n2c(Nc3ccc(Cl)c(F)c3F)nc3cnc(NC4CC(F)(F)C4)nc32)CC1 [Example 232, (1s,4s)-4-(8-(4-chloro-2,3-difluorophenylamino)-2-(3,3-difluorocyclobutylamino)-9H-purin-9-yl)cyclohexanecarboxamide]	> 1 µM	–	–
NC(=O)[C@H]1CC[C@@H](n2c(Nc3c(Cl)cc(Cl)cc3Cl)nc3cnc(NC[C@@H]4CCCC[C@H]4O)nc32)CC1 [Example 661, (1R,4s)-4-(2-(((1S,2R)-2-hydroxycyclohexyl)methylamino)-8-(2,4,6-trichlorophenylamino)-9H-purin-9-yl)cyclohexanecarboxamide]	–	> 1 µM	–
NC(=O)[C@H]1CC[C@@H](n2c(Nc3c(F)cc(Cl)cc3Cl)nc3cnc(N[C@@H]4CCC(F)(F)C4)nc32)CC1 [Example 592, (1S,4s)-4-(8-(2,4-dichloro-6-fluorophenylamino)-2-((R)-3,3-difluorocyclopentylamino)-9H-purin-9-yl)cyclohexanecarboxamide]	–	–	IC50 [2]: < 0.25 µM
C[C@]1(C(N)=O)CC[C@@H](n2c(Nc3c(F)cc(F)cc3F)nc3cnc(N[C@H]4CCC[C@H](O)C4)nc32)CC1 [Example 609, (1R,4s)-4-(2-((1S,3S)-3-hydroxycyclohexylamino)-8-(2,4,6-trifluorophenylamino)-9H-purin-9-yl)-1-methylcyclohexanecarboxamide]	–	0.25 to 0.5 µM	–
NC(=O)[C@H]1CC[C@@H](n2c(Nc3c(F)ccc(F)c3F)nc3cnc(NC4CC(F)(F)C4)nc32)CC1 [Example 233, (1s,4s)-4-(2-(3,3-difluorocyclobutylamino)-8-(2,3,6-trifluorophenylamino)-9H-purin-9-yl)cyclohexanecarboxamide]	0.5 to 1 µM	–	–
C[C@]1(C(N)=O)CC[C@@H](n2c(Nc3c(F)cc(F)cc3Cl)nc3cnc(N[C@@H]4CCC[C@@H](O)C4)nc32)CC1 [Example 618, (1S,4s)-4-(8-(2-chloro-4,6-difluorophenylamino)-2-((1R,3R)-3-hydroxycyclohexylamino)-9H-purin-9-yl)-1-methylcyclohexanecarboxamide]	–	0.5 to 1 µM	–
NC(=O)[C@H]1CC[C@@H](n2c(Nc3c(Cl)cccc3Cl)nc3cnc(N[C@H]4CCC[C@@H]4O)nc32)CC1 [Example 268, (1R,4s)-4-(8-(2,6-dichlorophenylamino)-2-((1S,2S)-2-hydroxycyclopentylamino)-9H-purin-9-yl)cyclohexanecarboxamide]	> 1 µM	–	–
CC(C)OC(=O)N1CCC[C@@H](Nc2ncc3nc(Nc4c(Cl)cc(C(F)(F)F)cc4Cl)n([C@H]4CC[C@@H](C(N)=O)CC4)c3n2)C1 [Example 770, (R)-isopropyl 3-(9-((1s,4S)-4-carbamoylcyclohexyl)-8-(2,6-dichloro-4-(trifluoromethyl)phenylamino)-9H-purin-2-ylamino)piperidine-1-carboxylate]	–	> 1 µM	–
NC(=O)[C@H]1CC[C@@H](n2c(Nc3c(F)ccc(F)c3F)nc3cnc(N[C@@H]4CCC[C@H]4O)nc32)CC1 [Example 260, (1S,4s)-4-(2-((1R,2R)-2-hydroxycyclopentylamino)-8-(2,3,6-trifluorophenylamino)-9H-purin-9-yl)cyclohexanecarboxamide]	> 1 µM	–	–
NC(=O)[C@H]1CC[C@@H](n2c(Nc3c(Cl)cc(C(F)(F)F)cc3Cl)nc3cnc(N[C@@H]4CCCN(Cc5ccccc5)C4)nc32)CC1 [Example 754, (1S,4s)-4-(2-((R)-1-benzylpiperidin-3-ylamino)-8-(2,6-dichloro-4-(trifluoromethyl)phenylamino)-9H-purin-9-yl)cyclohexanecarboxamide]	–	> 1 µM	–
N#Cc1cc(F)c(Nc2nc3cnc(N[C@@H]4CCC[C@@H](O)C4)nc3n2[C@H]2CC[C@@H](C(N)=O)CC2)c(Cl)c1 [Example 685, (1S,4s)-4-(8-(2-chloro-4-cyano-6-fluorophenylamino)-2-((1R,3R)-3-hydroxycyclohexylamino)-9H-purin-9-yl)cyclohexanecarboxamide]	–	0.5 to 1 µM	–
NC(=O)[C@H]1CC[C@@H](n2c(Nc3c(F)cc(Cl)cc3Cl)nc3cnc(N[C@H]4CCC(F)(F)C4)nc32)CC1 [Example 591, (1R,4s)-4-(8-(2,4-dichloro-6-fluorophenylamino)-2-((S)-3,3-difluorocyclopentylamino)-9H-purin-9-yl)cyclohexanecarboxamide]	–	–	IC50 [2]: 0.25 to 0.5 µM
N#Cc1cc(F)c(Nc2nc3cnc(N[C@@H]4CCOC4)nc3n2[C@H]2CC[C@@H](C(N)=O)CC2)c(F)c1 [Example 529, (1S,4s)-4-(8-(4-cyano-2,6-difluorophenylamino)-2-((R)-tetrahydrofuran-3-ylamino)-9H-purin-9-yl)cyclohexanecarboxamide]	–	–	IC50 [2]: > 1 µM
C[C@]1(C(N)=O)CC[C@@H](n2c(Nc3c(Cl)cc(C(F)(F)F)cc3Cl)nc3cnc(NC4CCC4)nc32)CC1 [Example 602, (1s,4s)-4-(2-(cyclobutylamino)-8-(2,6-dichloro-4-(trifluoromethyl)phenylamino)-9H-purin-9-yl)-1-methylcyclohexanecarboxamide]	–	> 1 µM	–
N#Cc1ccc(F)c(Nc2nc3cnc(NC4CCOCC4)nc3n2[C@H]2CC[C@@H](C(N)=O)CC2)c1F [Example 447, (1s,4s)-4-(8-(3-cyano-2,6-difluorophenylamino)-2-(tetrahydro-2H-pyran-4-ylamino)-9H-purin-9-yl)cyclohexanecarboxamide]	–	–	IC50 [2]: > 1 µM
NC(=O)[C@H]1CC[C@@H](n2c(Nc3c(F)cc(Cl)cc3Cl)nc3cnc(NC4COCC4O)nc32)CC1 (stereo partly shown) [Example 182, (1s,4s)-4-(8-(2,4-dichloro-6-fluorophenylamino)-2-(4-hydroxytetrahydrofuran-3-ylamino)-9H-purin-9-yl)cyclohexanecarboxamide]	> 1 µM	–	–
NC(=O)[C@H]1CC[C@@H](n2c(Nc3c(F)cccc3Cl)nc3cnc(N[C@@H]4CCC[C@@H](O)C4)nc32)CC1 [Example 416, (1S,4s)-4-(8-(2-chloro-6-fluorophenylamino)-2-((1R,3R)-3-hydroxycyclohexylamino)-9H-purin-9-yl)cyclohexanecarboxamide]	–	–	IC50 [2]: > 1 µM
CC(=O)N1CCC[C@@H](Nc2ncc3nc(Nc4c(Cl)cc(C#N)cc4Cl)n([C@H]4CC[C@@H](C(N)=O)CC4)c3n2)C1 [Example 712, (1S,4s)-4-(2-((R)-1-acetylpiperidin-3-ylamino)-8-(2,6-dichloro-4-cyanophenylamino)-9H-purin-9-yl)cyclohexanecarboxamide]	–	> 1 µM	–

Now from value to compound, other results behind:

IC50 [1]	IC50 [3]	SMILES	also measured
0.5 to 1 µM	–	CC[C@H](C)Nc1ncc2nc(Nc3c(F)cc(F)cc3F)n([C@H]3CC[C@@H](C(N)=O)CC3)c2n1 [Example 334, (1R,4s)-4-(2-(sec-butylamino)-8-(2,4,6-trifluorophenylamino)-9H-purin-9-yl)cyclohexanecarboxamide]	–
> 1 µM	–	NC(=O)[C@H]1CC[C@@H](n2c(Nc3c(F)ccc(Cl)c3F)nc3cnc(NC4CCOCC4)nc32)CC1 [Example 67, (1s,4s)-4-(8-(3-chloro-2,6-difluorophenylamino)-2-(tetrahydro-2H-pyran-4-ylamino)-9H-purin-9-yl)cyclohexanecarboxamide]	–
> 1 µM	–	NC(=O)[C@H]1CC[C@@H](n2c(Nc3c(F)ccc(F)c3F)nc3cnc(N[C@@H]4CC[C@@H](O)C4)nc32)CC1 [Example 218, (1S,4s)-4-(2-((1R,3R)-3-hydroxycyclopentylamino)-8-(2,3,6-trifluorophenylamino)-9H-purin-9-yl)cyclohexanecarboxamide]	–
–	> 1 µM	NC(=O)[C@H]1CC[C@@H](n2c(Nc3c(F)cc(F)cc3Cl)nc3cnc(NC4CCC(c5ncno5)CC4)nc32)CC1 (stereo partly shown) [Example 677, (1s,4s)-4-(2-(4-(1,2,4-oxadiazol-5-yl)cyclohexylamino)-8-(2-chloro-4,6-difluorophenylamino)-9H-purin-9-yl)cyclohexanecarboxamide]	–
> 1 µM	–	NC(=O)[C@H]1CC[C@@H](n2c(Nc3c(F)cc(F)cc3F)nc3cnc(N[C@@H]4CCC[C@H](O)C4)nc32)CC1 [Example 347, (1S,4s)-4-(2-((1R,3S)-3-hydroxycyclohexylamino)-8-(2,4,6-trifluorophenylamino)-9H-purin-9-yl)cyclohexanecarboxamide]	–
> 1 µM	–	CC(C)(C)OC(=O)N1CCC[C@@H](Nc2ncc3nc(Nc4c(F)cc(F)cc4F)n([C@H]4CC[C@@H](C(N)=O)CC4)c3n2)C1 [Example 158, (R)-tert-butyl 3-(9-((1s,4S)-4-carbamoylcyclohexyl)-8-(2,4,6-trifluorophenylamino)-9H-purin-2-ylamino)piperidine-1-carboxylate]	–
> 1 µM	–	Cc1cc(F)cc(F)c1Nc1nc2cnc(NC3CCOCC3)nc2n1[C@H]1CC[C@@H](C(N)=O)CC1 [Example 86, (1s,4s)-4-(8-(2,4-difluoro-6-methylphenylamino)-2-(tetrahydro-2H-pyran-4-ylamino)-9H-purin-9-yl)cyclohexanecarboxamide]	–

Reference: patent publication US11590139B2, “Substituted aminopurine compounds, compositions thereof, and methods of treatment therewith” (Signal Pharmaceuticals, LLC, priority 2014, dated 2023)
